Data as given in US7521397B2, “Disubstituted pyrazolyl carboxanilides” (Bayer CropScience AG, priority 2002, dated 2009).
Like-named read-outs stand apart in the source and are kept apart here.

What was measured:
Sphaerotheca fuliginea = experiment: Sphaerotheca test (cucumber)/protective; type: in vivo; details: Podosphaera fuliginea, topical, 168 h, protective spray, application rate 100 g/ha, evaluation 7 days after inoculation, read-out: Efficacy in %
Experimental: (§1) [table] To produce a suitable preparation of active compound, 1 part by weight of active compound is mixed with the stated amounts of solvent and emulsifier, and the concentrate is diluted with water to the desired concentration. To test for protective activity, young plants are sprayed with the preparation of active compound at the stated application rate. After the spray coating has dried on, the plants are inoculated with an aqueous spore suspension of the Sphaerotheca fuliginea. The plants are then placed in a greenhouse at about 23° C. and a relative atmospheric humidity of about 70%. Evaluation is carried out 7 days after the inoculation. 0% means an efficacy which corresponds to that of the control, whereas an efficacy of 100% means that no infection is observed.

Venturia inaequalis = experiment: Venturia test (apple)/protective; type: in vivo; details: topical, 240 h, protective spray, application rate 100 g/ha, evaluation 10 days after inoculation, read-out: Efficacy in %
Experimental: as §1, with “conidia” for “spore”, “apple scab pathogen Venturia inaequalis and then remain in an incubation cabin at about 20° C. and 100% relative atmospheric humidity for 1 day.” for “Sphaerotheca fuliginea.”, “21°” for “23°”, “90%.” for “70%.”, “10” for “7”

Podosphaera leucotricha = experiment: Podosphaera test (apple)/protective; type: in vivo; details: topical, 240 h, protective spray, application rate 100 g/ha, evaluation 10 days after inoculation, read-out: Efficacy in %
Experimental: as §1, with “of the apple mildew pathogen Podosphaera leucotricha. The plants” for “of the Sphaerotheca fuliginea. The plants”, “carried out 10 days after” for “carried out 7 days after”

Alternaria solani = experiment: Alternaria test (tomato)/protective; type: in vivo; details: protective spray, application rate 750 g/ha, evaluation 7 days after inoculation
Experimental: [table] To produce a suitable preparation of active compound, 1 part by weight of active compound is mixed with the stated amounts of solvent and emulsifier, and the concentrated is diluted with water to the desired concentration. To test for protective activity, young tomato plants are sprayed with the preparation of active compound at the stated application rate. 1 day after the treatment, the plants are inoculated with a spore suspension of Alternaria solani and are then kept at 100% relative atmospheric humidity and 20° C. for 24 h. The plants are then kept at 96% relative atmospheric humidity and a temperature of 20° C. Evaluation is carried out 7 days after the inoculation. 0% means an efficacy which corresponds to that of the control, whereas an efficacy of 100% means that no infection is observed.

[1] = logP determination by HPLC on reverse-phase column (EEC Directive 79/831 Annex V.A8); type: physicochemical; details: reverse-phase C18 HPLC column
Experimental: The logP values given in the tables and Preparation Examples above are determined in accordance with EEC Directive 79/831 Annex V.A8 by HPLC (High Performance Liquid Chromatography) on a reverse-phase column (C 18). Temperature: 43° C. In the acidic range, the determination is carried out at pH 2.3 using the mobile phases 0.1% aqueous phosphoric acid and acetonitrile; linear gradient from 10% acetonitrile to 90% acetonitrile. Calibration is carried out using unbranched alkan-2-ones (of 3 to 16 carbon atoms) with known logP values (determination of the logP values by the retention times using linear interpolation between two successive alkanones).

[2] = pH 2.3, 43° C., preparation examples, read-out: logP (pH 2.3)
[3] = Table 1, 43° C., acidic range pH 2.3, read-out: logP

SMILES | chromatographic logP [1, 2] | chromatographic logP [1, 3] | pest or weed control at 100 g/ha (Sphaerotheca fuliginea) [%] | pest or weed control at 100 g/ha (Venturia inaequalis) [%] | pest or weed control at 100 g/ha (Podosphaera leucotricha) [%] | Efficacy in % (Alternaria solani) [%]
Cn1cc(C(=O)Nc2c(F)cccc2-c2ccc(F)c(Cl)c2)c(C(F)(F)F)n1 [Example 2] | 3.04 |  |  |  |  | 100
Cn1cc(C(=O)Nc2cc(F)ccc2-c2ccc(Cl)c(Cl)c2)c(C(F)(F)F)n1 [Example 3] |  | 3.75 | 100 | 100 | 100 | 100
Cn1cc(C(=O)Nc2cc(F)ccc2-c2ccc(F)c(Cl)c2)c(C(F)(F)F)n1 [Example 4] |  | 3.51 | 99 | 100 | 100 | 100
Cn1cc(C(=O)Nc2ccc(F)cc2-c2ccc(F)c(Cl)c2)c(C(F)(F)F)n1 [Example 6] |  | 3.26 | 98 | 100 | 100 | 100
Cn1cc(C(=O)Nc2c(F)cccc2-c2ccc(Cl)c(Cl)c2)c(C(F)F)n1 [Example 7] |  | 3.1 | 100 | 100 | 100 | 
Cn1cc(C(=O)Nc2cc(F)ccc2-c2ccc(F)c(Cl)c2)c(C(F)F)n1 [Example 10] |  | 3.29 | 100 | 100 | 100 | 
Cn1cc(C(=O)Nc2ccc(F)cc2-c2ccc(Cl)c(Cl)c2)c(C(F)F)n1 [Example 11] |  | 3.33 | 100 | 100 | 100 | 
Nc1ccc(F)cc1-c1ccc(Cl)c(Cl)c1 [Example (III-2), 3′,4′-Dichloro-5-fluoro-1,1′-biphenyl-2-amine] | 3.62 |  |  |  |  | 

Now from value to compound, other results behind:

chromatographic logP [1, 2] | chromatographic logP [1, 3] | SMILES | pest or weed control at 100 g/ha (Sphaerotheca fuliginea) [%] | pest or weed control at 100 g/ha (Venturia inaequalis) [%] | pest or weed control at 100 g/ha (Podosphaera leucotricha) [%] | Efficacy in % (Alternaria solani) [%]
3.1 |  | Cn1cc(C(=O)Nc2c(F)cccc2-c2ccc(Cl)c(Cl)c2)c(C(F)(F)F)n1 [Example 1, N-(3′,4′-dichloro-3-fluoro-1,1′-biphenyl-2-yl)-1-methyl-3-(trifluoromethyl)-1H-pyrazole-4-carboxamide] | 100 | 100 | 100 | 100
 | 3.57 | Cn1cc(C(=O)Nc2ccc(F)cc2-c2ccc(Cl)c(Cl)c2)c(C(F)(F)F)n1 [Example 5] | 100 | 100 | 100 | 100
 | 3.55 | Cn1cc(C(=O)Nc2cc(F)ccc2-c2ccc(Cl)c(Cl)c2)c(C(F)F)n1 [Example 9] | 94 | 99 | 83 | 
 | 3.07 | Cn1cc(C(=O)Nc2ccc(F)cc2-c2ccc(F)c(Cl)c2)c(C(F)F)n1 [Example 12] | 100 | 100 | 100 | 
4.09 |  | Nc1c(F)cccc1-c1ccc(Cl)c(Cl)c1 [Example (III-1), 3′,4′-dichloro-3-fluoro-1,1′-biphenyl-2-amine] |  |  |  | 
2.12 |  | Cn1cc(C(=O)Nc2c(F)cccc2Br)c(C(F)(F)F)n1 [Example (IV-1)] |  |  |  | 
